Results as given in patent publication US11400062B2, “Compositions comprising enzyme-cleavable amphetamine prodrugs and inhibitors thereof” (Signature Therapeutics, Inc., priority 2010, dated 2022).

Experiments:
[1] = Pharmacokinetics of prodrug following PO administration to rats; details: for Cmax / Tmax: male, Sprague Dawley, rat, plasma, po
[2] = Pharmacokinetics of prodrug following IV administration to rats; details: for Cmax: male, Sprague Dawley, rat, plasma, iv
[3] = target: T1, trypsin from bovine pancreas (Bos taurus, UniProt P00760); test: In vitro trypsin conversion of prodrugs to amphetamine and inhibition by trypsin inhibitor; details: no trypsin inhibitor; 0.761 mM prodrug HCl, 0.0228 mg/ml trypsin, pH 8, 37° C.
T1 sequence (P00760 24-246): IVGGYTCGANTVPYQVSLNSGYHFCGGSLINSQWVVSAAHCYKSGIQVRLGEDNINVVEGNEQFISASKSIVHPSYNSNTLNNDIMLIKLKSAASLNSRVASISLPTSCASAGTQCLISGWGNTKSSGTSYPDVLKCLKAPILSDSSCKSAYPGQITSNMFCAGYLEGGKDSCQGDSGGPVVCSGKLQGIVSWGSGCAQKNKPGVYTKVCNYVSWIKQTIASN

[4] = target: T2, trypsin (Bos taurus, UniProt P00760); test: as above; details: bovine, trypsin from bovine pancreas; for half-life at 0.761 mM: pH 8; for half-life: pH 8, with Compound 109 (trypsin inhibitor), 2 uM
T2 sequence (P00760 24-246): T1 sequence (P00760 24-246)

[5] = In vivo tolerability in rats (intravenous); parameters: species or system rat; details: for dose tolerated by rats: IV
Experimental: (§1) Male naïve Sprague-Dawley rats, 4 per dose, were used in the study. Rats were weighed, and then placed under a heat lamp for 15-20 minutes to dilate the lateral tail veins. […] Before dosing, rats were placed in Broome restrainers and the drug was introduced into one of the tail veins using a syringe and needle. […] Blood samples were collected 5 minutes post-dose via the saphenous vein. The rats were observed up to 24 hours.
as §1
The protocol to assess the IV tolerability of Compound AM-3 (lisdexamphetamine) was as described in Examples 9 and 13 above.

[6] = rat plasma, AM-4 PO 24 mg/kg (63 μmol/kg)

`CC(=O)N[C@@H](CCCNC(=N)N)C(=O)N[C@@H](C)Cc1ccccc1` (stereo in doubt) [Compound AM-1, 2-acetylamino-5-guanidino-pentanoic acid ((R)-1-methyl-2-phenyl-ethyl)-amide] gave a Cmax ([1]; 24 mg/kg) of 1.28 ± 0.81 ng/mL, a Tmax ([1]; 24 mg/kg) of 0.625 ± 0.43 h and a Cmax ([2]; 5 mg/kg) of 3250 ± 310 ng/mL. For the same compound, the “Rate of AMP formation, Ave ± sd” value [3] was 0.0455 ± 0.0102 umols/h/UBAEE, the half-life at 0.761 mM [4] was 39.9 ± 0.5 h and the half-life [4] was 54 ± 4.6 h. The “time to recover to normal activity” value ([5]; AM-1 IV 87 μmol/kg) was no more than 2 min and the “dose tolerated by rats” value [5] was 87 µmol/kg.
Work on `C[C@@H](Cc1ccccc1)NC(=O)[C@H](CCCNC(=N)N)NC(=O)CC(=O)O` [Compound AM-2, N-[4-guanidino-1-((R)-1-methyl-2-phenyl-ethylcarbamoyl)-butyl]-malonic acid] yielded a Cmax ([1]; 27 mg/kg) of 811 ± 850 ng/mL, a Tmax ([1]; 27 mg/kg) of 0.625 ± 0.25 h and a Cmax ([2]; 6 mg/kg) of 2600 ± 260 ng/mL. For the same compound, the “Rate of AMP formation, Ave ± sd” value [3] was 0.0310 ± 0.0004 umols/h/UBAEE, the half-life at 0.761 mM [4] was 59.9 ± 17.1 h and the half-life [4] was 68.5 ± 16.4 h. The “time to recover to normal activity” value ([5]; AM-2 IV 155 μmol/kg) was no more than 30 min and the “dose tolerated by rats” value [5] was 155 µmol/kg.
Compound `C[C@@H](Cc1ccccc1)NC(=O)[C@@H](N)CCCCN` [Compound AM-3, lisdexamphetamine, reference compound] has a Cmax ([1]; 22 mg/kg) of 357 ng/mL, a Tmax ([1]; 22 mg/kg) of 0.625 ± 0.25 h and a Cmax ([2]; 4.5 mg/kg) of 1670 ± 580 ng/mL. The “Rate of AMP formation, Ave ± sd” value [3] was “not detectable”, the half-life at 0.761 mM [4] was 112 ± 14 h and the half-life [4] was 393 ± 431 h. For the same compound, the “time to recover to normal activity” value ([5]; AM-3 IV 48 μmol/kg) was no more than 120 min, the “death of the rats” value ([5]; AM-3 IV 95 μmol/kg) was 50% and the time to death ([5]; AM-3 IV 95 μmol/kg and 190 μmol/kg) was “less than 1 min”. The “death of the rats” value ([5]; AM-3 IV 190 μmol/kg) was 100%, the Clinical observations ([5]; AM-3 IV 64 mg/kg (190 μmol/kg), 1 rat) was “Died 10 sec post dose” and the “dose tolerated by rats” value [5] was 48 µmol/kg.
Compound `CC(=O)N[C@@H](CCCCN)C(=O)N[C@@H](C)Cc1ccccc1` [Compound AM-5, Amphetamine-lysine-acetate] has a Cmax ([2]; 4.5 mg/kg) of 2150 ± 1700 ng/mL.
With “Amphetamine-arginine-N-methyl [Compound AM-4]” the “AMP Cmax ± sd” value [1, 6] was 1.92 ± 0.20 ng/mL, the “AMP Tmax ± sd” value [1, 6] was 1.00 ± 0.0 h and the “AMP Cmax ± sd” value ([2]; rat plasma, AM-4 IV 4.5 mg/kg (12 μmol/kg)) was 17.9 ± 3.5 ng/mL.
